Reference: US5607836A, “Methods of detecting compounds which bind to the P2U receptor” (The Curators of the University of Missouri, priority 1995, dated 1997)

How the values were obtained:
murine P2U receptor = murine P2U receptor (Mus musculus, UniProt P35383); assay: intracellular phosphatidylinositol 4,5-bisphosphate (PIP2) in K562 stable transfectants; assay type: cell-based; conditions: transient
Source text: Stable and Transient Transfections. To generate stable transfectants expressing the P2U receptor, K562 cells were transfected by electroporation (F. Toneguzzo et al., Mol. Cell. Biol. 6, 703 (1986)) with the neomycin-resistance plasmid pP2R1. pP2R1 is pRc/CMV containing a ~2.4 kb HindIII-NotI fragment of the P2U receptor cDNA, missing the first 6 nucleotides of the 5' untranslated region of the full length cDNA. control cells were stably transfected with pRc/CMV. Cells were sedimented at 200×g for 5 min at room temperature, rinsed once with phosphate-buffered saline (10 mM NaH2 PO4, pH 7.4, 120 mM NaCl, 5 mM KCl), and resuspended in phosphate-buffered saline at a final concentration of 4×10^7 cells/ml. The cells were chilled on ice for 10 min and then transferred in 0.5 ml aliquots to prechilled electroporation cuvettes. DNA (40 μg of pP2R1 linearized with PvuI) was added to the cell suspension, the cells were subjected to a single electrical pulse (1 kV, 25 μF) and the cuvettes were placed on ice. After 10 min, growth medium was added and the cells were incubated at 37° C. Fresh growth medium supplemented with 0.7 mg/ml G418 was added 48 h […], and the cells were incubated for 2 weeks to select for stable transfectants expressing neomycin resistance. […]

[1] = molecular target: T1, P2U receptor of CF/T43 cells (Homo sapiens, UniProt P41231); assay: intracellular calcium by fura-2 fluorescence in CF/T43 cells (endogenous receptor); assay type: cell-based; conditions: for [Ca^2+ ]i response to extracellular nucleotide: 10^-4 M (printed for UTP)
T1 construct: fura-2 calcium
T1 sequence (P41231 whole entry): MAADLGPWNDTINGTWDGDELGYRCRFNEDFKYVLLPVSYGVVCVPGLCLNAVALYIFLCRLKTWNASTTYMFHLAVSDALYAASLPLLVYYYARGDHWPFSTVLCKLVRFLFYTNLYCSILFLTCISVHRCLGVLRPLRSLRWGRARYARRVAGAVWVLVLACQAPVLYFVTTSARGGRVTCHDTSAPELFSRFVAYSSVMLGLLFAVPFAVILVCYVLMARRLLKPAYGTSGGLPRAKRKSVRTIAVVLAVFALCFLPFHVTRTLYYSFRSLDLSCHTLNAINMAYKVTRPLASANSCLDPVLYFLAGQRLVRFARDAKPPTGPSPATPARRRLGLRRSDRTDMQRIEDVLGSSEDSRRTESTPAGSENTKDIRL
Experimental: (§1) Heteroloqous Expression. A retroviral vector-containing plasmid, pLHP2USN, was constructed by insertion of the cloned CF/T43 cDNA into the EcoRI and XhoI sites of pLXSN (A. Miller and G. Rosman, Biotechniques 7, 980 (1989)). An amphotrophic packaging cell line, PA317, was used to produce the LHP2USN retroviral vector and a control vector containing Neor only (LSN). Clonal human astrocytoma cells 1321N1, UNC strain, generously provided by T. K. Harden (UNC, Chapel Hill, N.C.), were plated at 150,000 cells per 60-mm dish and infected with LHP2USN or LSN (2 hr, 4 ug/ml Polybrene) and after 48 hr selected with 600 ug/ml G418 (Life Technologies, Inc., Gaithersburg, Md., U.S.A.). To assay for receptor activity, intracellular calcium concentration was measured in confluent cells on coverslips by fura-2 fluorescence using microspectrofluorimetry as previously described (S. Mason et al., Br. J. Pharmacol. 103, 1649 (1991)). Measurement of cell inositol phosphate formation was as described by H. Brown et al., Mol. Pharmacol. 40, 648 (1991), in accordance with known techniques.
(§2) A retrovirus expression system was employed to study the cloned CF/T43 HP2U cDNA in 1321N1 human astrocytoma cells. The effect of extracellular nuceotides on intracellular calcium, as measured by fura-2 fluorescence, was assessed in CF/T43 cells, uninfected 1321N1 cells, and 1321N1 cells infected with retroviral vector containing either the cloned HP2U or no insert (LSN).

human P2U receptor [2] = molecular target: T2, human P2U receptor (Homo sapiens, UniProt P41231); assay: intracellular calcium by fura-2 fluorescence in 1321N1 human astrocytoma cells expressing the cloned HP2U (LHP2USN); assay type: cell-based; conditions: for [Ca^2+ ]i in absence of extracellular Ca^2+: HP2U-1321N1 cells
T2 sequence (P41231 whole entry): as above
Experimental: as §1, §2
To examine the pharmacological specifity of the HP2U clone expressed in 1321N1 cells, concentration-effect curves were generated for nucleotides and structural analogues active at P2X, P2Y and P2U receptors (data not shown). […] These concentration-effect relations are very similar to those reported for heterologously expressed murine P2U (Lustig, et al., supra) and virtually indistinguishable from data (not shown) generated for the endogenous CF/T43 and HT-29 receptors. Clearly, the agonist specifities fit the definition of the P2U receptor.

human P2U receptor [3] = molecular target: T2, human P2U receptor; assay: inositol phosphate formation in 1321N1 cells expressing LHP2USN; assay type: cell-based; conditions: 1321N1 cells expressing LHP2USN pretreated with apyrase
Experimental: as §1
To test this possibility more directly, we measured inositol phosphate formation. […] We hypothesized that during the lengthy labeling period 1321N1 cells released 5'-nucleotides into the medium in quantities sufficient to "self-activate" the receptor. […] Thus, it appears the cells are persistently stimulated by nucleotides in an autocrine fashion. The mode of release of nucleotides from the astrocytoma cells and the biological consequences of the persistent autocrine activation are unknown. To facilitate comparison with controls, the inositol phosphate studies were performed on cells pretreated with apyrase.

[4] = molecular target: histidine-tagged P2U receptor (P2HIS) (Mus musculus, UniProt P35383); assay: PIP2 in K562 cells stably expressing P2HIS; assay type: cell-based, murine
Chain of histidine-tagged P2U receptor (P2HIS) (P35383 whole entry): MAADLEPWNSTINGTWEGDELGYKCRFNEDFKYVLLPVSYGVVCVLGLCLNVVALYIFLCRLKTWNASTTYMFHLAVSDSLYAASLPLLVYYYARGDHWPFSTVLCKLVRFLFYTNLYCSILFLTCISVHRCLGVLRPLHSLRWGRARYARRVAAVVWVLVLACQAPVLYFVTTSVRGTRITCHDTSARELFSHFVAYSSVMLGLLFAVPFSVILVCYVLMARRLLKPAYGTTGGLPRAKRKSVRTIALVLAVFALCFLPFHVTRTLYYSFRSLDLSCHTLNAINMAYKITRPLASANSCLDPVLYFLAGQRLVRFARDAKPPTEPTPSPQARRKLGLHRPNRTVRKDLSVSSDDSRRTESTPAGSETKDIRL
Experimental: Construction and Purification of the Histidine-tagged P2U Receptor (P2HIS). To produce P2HIS, 70 pmoles of the primers CGCACCATTGCCTTGGTAC (SEQ ID NO:3)(which contains a BstXI site) and […] (SEQ ID NO:4) (which contains an EcoRV site, stop codon, and the hexahistidine coding sequence) were incubated with 50 ng of pP2R, 20 nmoles of each dNTP, 1X reaction buffer (20 mM Tris-HCl, pH 8.2, 10 mM KCl, 6 mM (NH4)2 SO4, 1.5 mM MgCl2, and 0.1% Triton X-100), and H2 O to bring the reaction mixture to a 100 μl volume. […] The reaction mixture was overlayed with 50 μl of mineral oil and subjected to 30 PCR cycles (95° C. for 1.5 min, 55° C. for 1.5 min, and 72° C. for 2 min). The PCR product, a single 400 bp band, was subcloned into the unique BstXI-EcoRV restriction site of pP2R to generate pP2HIS. K562 cells with stable P2HIS expression were produced by subcloning the HindIII-NotI restriction fragment of pP2HIS encoding the histidine-taged P2U receptor cDNA into pRC/CMV and transfecting K562 cells as described for pP2R1. The composition of pP2HIS was verified by DNA sequence analysis.

[5] = system: P2T receptor of K562 cells; assay: cytoplasmic free calcium (fura-2) in untransfected or vector-transfected K562 cells; assay type: cell-based, human; conditions: untransfected or vector-transfected K562 cells
Source text: Stable and Transient Transfections. To generate stable transfectants expressing the P2U receptor, K562 cells were transfected by electroporation (F. Toneguzzo et al., Mol. Cell. Biol. 6, 703 (1986)) with the neomycin-resistance plasmid pP2R1. pP2R1 is pRc/CMV containing a ~2.4 kb HindIII-NotI fragment of the P2U receptor cDNA, missing the first 6 nucleotides of the 5' untranslated region of the full length cDNA. control cells were stably transfected with pRc/CMV. Cells were sedimented at 200×g for 5 min at room temperature, rinsed once with phosphate-buffered saline (10 mM NaH2 PO4, pH 7.4, 120 mM NaCl, 5 mM KCl), and resuspended in phosphate-buffered saline at a final concentration of 4×10^7 cells/ml. The cells were chilled on ice for 10 min and then transferred in 0.5 ml aliquots to prechilled electroporation cuvettes. DNA (40 μg of pP2R1 linearized with PvuI) was added to the cell suspension, the cells were subjected to a single electrical pulse (1 kV, 25 μF) and the cuvettes were placed on ice. After 10 min, growth medium was added and the cells were incubated at 37° C. Fresh growth medium supplemented with 0.7 mg/ml G418 was added 48 h […], and the cells were incubated for 2 weeks to select for stable transfectants expressing neomycin resistance. Clonal cell lines were then isolated by transferring single cells to individual wells of a 96-well culture plate: each well contained 0.2 ml of conditioned growth medium filtered from K562 stock cultures, 0.2 ml of fresh growth medium, and 0.4 mg/ml G418. The clonal cell lines were cultured for three to four weeks in growth medium containing 0.4 mg/ml G418 and assayed for P2U receptor, the results shown are from one representative clonal cell line.
Cytoplasmic Free Calcium Measurements. Cells were sedimented at 200×g for 5 min at room temperature and washed once with 10 ml of Hepes-bufferedsaline (20 mM Hepes, pH 7.4, 120 mM NaCl, 5 mM KCl, 1 mM MgCl2, and 1 mM CaCl2). Washed cells were suspended in Hepes-buffered saline at 5×10^5 cells/ml, and stored (for up to 4 h) at 37° C. The concentration of cytoplasmic free calcium, [Ca^2+ ]i, was measured by dual-excitation spectrofluorometric analysis of cells loaded with fura-2, a fluorescent probe for calcium.

Chain of murine P2U receptor (P35383 whole entry, the tested form may be a part): as the sequence (P35383 whole entry) above

Row | SMILES | reduction of intracellular levels of phosphatidylinositol 4,5-bisphosphate (PIP2) (murine P2U receptor) | [Ca^2+ ]i response to extracellular nucleotide [1] | [Ca^2+ ]i response to extracellular nucleotide in Ca2+-free medium [1] | EC50 (human P2U receptor [2]) | [Ca^2+ ]i response of 1321N1 cells expressing the LHP2USN vector (human P2U receptor [2]; Ca2+-free and Ca2+-containing media) | [Ca^2+ ]i in absence of extracellular Ca^2+ (human P2U receptor [2]) | inositol phosphate accumulation (human P2U receptor [3]) | PIP2 in K562 cells stably expressing P2HIS [4] | elevation of [Ca^2+ ]i in untransfected or vector-transfected K562 cells [5] | efficacy / effect in concentration-effect curves (human P2U receptor [2]; HP2U clone expressed in 1321N1 cells)
1 | Nc1ncnc2c1ncn2[C@@H]1O[C@H](COP(=O)(O)OP(=O)(O)OP(=O)(O)O)[C@@H](O)[C@H]1O [ATP] | approximately 10% | the same result observed with UTP | the same result observed with UTP | 1000 nM | the same result observed with UTP | raised [Ca^2+ ]i | increased inositol phosphate accumulation | decrease in PIP2 | Neither ATP nor UTP elevated [Ca^2+ ]^i | 
2 | O=c1ccn([C@@H]2O[C@H](COP(=O)(O)OP(=O)(O)OP(=O)(O)O)[C@@H](O)[C@H]2O)c(=O)[nH]1 [UTP] | approximately 10% | initial sharp increase in [Ca^2+ ]i which relaxed over 1-2 min to a prolonged plateau | sharp increase in [Ca^2+ ]i which returned to baseline without an intervening plateau phase | 1400 nM |  | raised [Ca^2+ ]i | increased inositol phosphate accumulation | decrease in PIP2 | Neither ATP nor UTP elevated [Ca^2+ ]^i | slightly more efficacious
